Assay results reported in patent publication US20110269802A1, “METHOD OF DELIVERY OF PERISHABLE LIQUID MIXTURES USING MIXING CAP AND CONTAINER SYSTEM” (priority 2010, published 2011).

System: diabetic, insulin dependent canine test subject
Experiment: GABA in drinking water given to diabetic, insulin dependent canine subjects; monitoring of fasting blood glucose and fructosamine
Assay type: in vivo
Details: for decline of fasting blood glucose: 30 mg/kg daily in 200 milliliters of water, oral, after two months of treatment, subject as its own control
Method: METHODS: GABA (99% pure from Sigma-Aldrich) at a dose of 30 mg/kg was brought into solution in 200 milliliters of water daily so that the diabetic, insulin dependent canine test subject consumed the dose within approximately four hours, based on average consumption of water observed by owners. Fasting blood glucose and fructosamine were monitored once a month. Each canine subject served as its own control, with monitoring of blood glucose and fructosamine off treatment recorded the first two months followed by monitoring while on GABA therapy.

## NCCCC(=O)O [GABA, gamma-aminobutyric acid]
Both subjects, 30 mg/kg daily in water, on treatment versus off treatment
  concentrations of blood fructosamine: significantly lower
First test subject
  decline of fasting blood glucose: 49.6%
Insulin dependent test subjects, 30 mg/kg daily in water, within two weeks, continued improvement over four months
  glycemic control: improved glycemic control within two weeks
Second test subject
  decline of fasting blood glucose: 50%
